As usually defined, the EC50 is the concentration at which the effect is half-maximal. A word on the inhibition: it is how much of the control response was suppressed. Usually IC50 stands for the concentration that gives 50% inhibition.

Read-outs that look alike come from different tables or passages of the source.

Here are results for 5 compounds from paper PMC5913400, “Yoda1 analogue (Dooku1) which antagonizes Yoda1‐evoked activation of Piezo1 and aortic relaxation” (British Journal of Pharmacology, 2018).

Holding throughout (format): cell-based
Test [1] has as its target T1, Piezo1 (Homo sapiens, UniProt Q92508). Nature of the test: Ca2+ entry at […] in Piezo1 T-REx HEK […] cells ([…] of Yoda1 response); also reduces Yoda1 response. As to conditions: TREx-HEK; read-out: % of 10 μM Yoda1 response.
The target in test [2] is T1, Piezo1. The experiment in a line: intracellular Ca2+ (fura-2) in Piezo1 T-REx HEK […] cells; no response in cells without Piezo1; EC50 […] in HUVECs.
The target of test [3] is T1, Piezo1. Nature of the test: partial agonist; […] pretreatment reduces […] Yoda1-evoked Ca2+ entry in Piezo1 T-REx HEK […] cells. Particulars: TREx-HEK; read-out: % inhibition of Yoda1 response at 10 μM.
Test [4] deals with T1, Piezo1. The experiment in a line: Ca2+ entry at […] in Piezo1 T-REx HEK […] cells ([…] of Yoda1 response); also reduces Yoda1 response. As to conditions: TREx-HEK; read-out: % of 10 μM Yoda1 response. This is another data set of the same source.
Test [5] addresses T1, Piezo1. Nature of the test: inhibition of […] Yoda1-evoked Ca2+ entry in Piezo1 T-REx HEK […] cells; reversible; also Tl+ flux and HUVECs (IC50 […]).

T1 sequence (Q92508 whole entry): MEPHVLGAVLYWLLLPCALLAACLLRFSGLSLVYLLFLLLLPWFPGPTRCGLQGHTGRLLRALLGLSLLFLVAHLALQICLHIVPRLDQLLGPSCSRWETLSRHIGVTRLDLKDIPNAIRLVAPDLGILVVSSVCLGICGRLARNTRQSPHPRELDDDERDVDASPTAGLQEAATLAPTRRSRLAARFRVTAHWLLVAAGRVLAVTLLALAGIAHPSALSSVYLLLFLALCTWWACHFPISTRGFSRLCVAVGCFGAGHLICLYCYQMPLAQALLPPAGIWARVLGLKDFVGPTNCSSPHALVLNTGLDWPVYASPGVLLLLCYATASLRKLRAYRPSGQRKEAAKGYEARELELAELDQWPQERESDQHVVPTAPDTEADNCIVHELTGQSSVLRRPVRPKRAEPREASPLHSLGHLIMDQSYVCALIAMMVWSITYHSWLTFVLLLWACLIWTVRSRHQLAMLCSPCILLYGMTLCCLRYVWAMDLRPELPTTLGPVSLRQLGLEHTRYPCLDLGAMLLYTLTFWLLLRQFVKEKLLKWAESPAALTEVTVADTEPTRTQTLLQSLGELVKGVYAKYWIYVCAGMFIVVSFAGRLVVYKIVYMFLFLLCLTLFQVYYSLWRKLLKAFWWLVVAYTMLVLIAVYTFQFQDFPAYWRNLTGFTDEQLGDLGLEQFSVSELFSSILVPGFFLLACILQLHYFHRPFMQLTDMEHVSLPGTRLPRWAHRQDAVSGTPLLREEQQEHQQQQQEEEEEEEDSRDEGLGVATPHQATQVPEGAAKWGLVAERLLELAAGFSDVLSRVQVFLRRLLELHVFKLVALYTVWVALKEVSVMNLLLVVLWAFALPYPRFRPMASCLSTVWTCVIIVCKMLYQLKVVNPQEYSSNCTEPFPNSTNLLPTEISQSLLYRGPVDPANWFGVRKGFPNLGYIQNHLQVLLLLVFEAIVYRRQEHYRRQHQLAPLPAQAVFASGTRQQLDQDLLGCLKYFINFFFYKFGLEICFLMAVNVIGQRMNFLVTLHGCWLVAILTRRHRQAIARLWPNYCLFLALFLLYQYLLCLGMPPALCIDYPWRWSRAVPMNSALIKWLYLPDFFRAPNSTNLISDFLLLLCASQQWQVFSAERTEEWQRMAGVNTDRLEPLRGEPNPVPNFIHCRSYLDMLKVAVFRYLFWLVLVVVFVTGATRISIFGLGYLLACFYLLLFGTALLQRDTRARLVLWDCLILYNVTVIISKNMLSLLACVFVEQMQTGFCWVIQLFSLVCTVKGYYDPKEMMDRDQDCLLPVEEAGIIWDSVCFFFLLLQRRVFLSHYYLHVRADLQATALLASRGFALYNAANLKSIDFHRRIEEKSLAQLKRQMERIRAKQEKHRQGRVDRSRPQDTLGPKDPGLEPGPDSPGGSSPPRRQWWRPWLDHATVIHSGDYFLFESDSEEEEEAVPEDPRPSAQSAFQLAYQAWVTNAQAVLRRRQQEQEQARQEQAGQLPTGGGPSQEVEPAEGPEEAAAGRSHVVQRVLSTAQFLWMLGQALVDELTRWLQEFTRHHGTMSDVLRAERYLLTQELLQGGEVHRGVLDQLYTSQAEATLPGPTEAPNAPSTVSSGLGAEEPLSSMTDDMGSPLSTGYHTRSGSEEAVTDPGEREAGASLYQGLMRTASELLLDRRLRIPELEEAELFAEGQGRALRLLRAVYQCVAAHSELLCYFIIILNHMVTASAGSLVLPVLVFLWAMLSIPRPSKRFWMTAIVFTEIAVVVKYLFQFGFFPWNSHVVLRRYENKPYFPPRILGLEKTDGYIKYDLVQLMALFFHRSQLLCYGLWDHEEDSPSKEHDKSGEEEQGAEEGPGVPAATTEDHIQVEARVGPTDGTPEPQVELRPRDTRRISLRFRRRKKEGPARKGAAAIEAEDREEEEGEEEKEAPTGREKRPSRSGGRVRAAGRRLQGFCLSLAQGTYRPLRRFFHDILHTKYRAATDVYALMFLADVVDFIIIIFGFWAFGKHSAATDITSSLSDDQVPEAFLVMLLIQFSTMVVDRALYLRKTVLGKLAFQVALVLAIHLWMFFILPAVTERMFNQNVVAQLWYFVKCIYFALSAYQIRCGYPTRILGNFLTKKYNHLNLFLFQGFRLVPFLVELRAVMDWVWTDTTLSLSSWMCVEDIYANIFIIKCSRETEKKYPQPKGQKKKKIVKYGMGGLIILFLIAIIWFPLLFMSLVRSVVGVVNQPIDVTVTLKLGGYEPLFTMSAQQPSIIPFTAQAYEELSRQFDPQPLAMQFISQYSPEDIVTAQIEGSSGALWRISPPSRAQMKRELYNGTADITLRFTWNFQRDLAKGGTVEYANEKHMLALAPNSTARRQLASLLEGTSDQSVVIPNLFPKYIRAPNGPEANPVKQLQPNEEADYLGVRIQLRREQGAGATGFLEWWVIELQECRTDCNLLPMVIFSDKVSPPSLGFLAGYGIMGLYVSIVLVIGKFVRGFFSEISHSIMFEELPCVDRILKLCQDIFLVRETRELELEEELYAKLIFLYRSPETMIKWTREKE

As to `Clc1cccc(Cl)c1CSc1nnc(-c2cnccn2)o1` [compound 11], the Emax in test [1] is around 70%.

Consider `Clc1cccc(Cl)c1CSc1nnc(-c2cnccn2)s1` [Yoda1], for which it took 2.51 µM to reach a half-maximal effect in test [2] (EC50).

Consider `Clc1cccc(Cl)c1CSc1nnc(-c2ccccn2)o1` [2j], for which the inhibition at 10 µM in test [3] is around 75%.

Turning to `Clc1cccc(Cl)c1CSc1nnc(-c2cccnc2)s1` [7a], the Emax in test [4] came out at 50%.

As to `Clc1cccc(Cl)c1CSc1nnc(-c2ccc[nH]2)o1` [2k, Dooku1], the IC50 in test [5] worked out at 1.3 µM.
